Counter-ions that a name gives are not always drawn.

The source of these data is US20220125746A1, “METHOD OF PREVENTING OR TREATING TREATMENT-INDUCED GASTROINTESTINAL INJURY” (priority 2019, published 2022).

Data set [1] can be described thus: PUMAi distribution in intestinal mucosa and plasma (LC-MS/MS). Particulars: for PUMAi concentration in intestinal mucosa compared to -1.5 hours: 10 mg/kg i.p. In kind it is in vivo, mouse. On the procedure: Acetonitrile and water (all HPLC grade) were purchased from Fisher Scientific. Formic acid and trifluoroacetic acid was purchased from Sigma-Aldrich. Stock solutions of PUMAi and [D5]-PUMAi internal standard were prepared at 1 mg/mL in DMSO, diluted 10 times in acetonitrile, and then stored at −80° C. On the day of the assay, the solution was serially diluted (in 10-fold steps) in acetonitrile to obtain the lower calibration working solutions of 0.01 and 0.001 mg/mL. These calibration working solutions were diluted in mouse plasma (Lampire Biological Laboratories, Inc.) to produce the following analyte concentrations: 10, 30, 50, 100, 300, 500, 1000, 3000 ng/mL. For each calibration series, zero (containing 10 ng/mL of internal standard) and blank samples were also prepared from 50 μL of Lampire plasma. Quality control (QC) stock solutions were diluted in Lampire mouse plasma to produce the following QC samples: QC Low (QCL) 20 ng/mL; QC Mid (QCM) 200 ng/mL, and QC High (QCH) 2500 ng/mL.
To extract PUMAi, we added 10 μL of internal standard solution (1000 ng/mL [D5]-PUMAi in acetonitrile) to 50 μL of plasma sample in a micro centrifuge tube. […]
The mass spectrometer was operated in ESI positive mode using MRM detection. […] The mass transitions monitored were m/z 331>143 for PUMAi and 345>157 for the internal standard.
To assess recovery from plasma, we compared areas from control plasma spiked with 1000 ng/mL of PUMAi, prepared as described above, with the areas obtained with a neat solution of PUMAi in water. Intestinal mucosa was analyzed after dilution in control plasma to within the calibration range. […]
PUMAi {1-[4-(2-hydroxyethyl)-1-piperazinyl]-3-(2-naphthyloxy)-2-propanol dihydrochloride} was synthesized by ChemBridge, with a purity of 95% by HPLC-MS, and an internal isotopic standard PUMAih7 (D5, five internal hydrogens replaced by deuterium) was synthesized by Alsachim, with purity approaching 100% by HPLC-MS. […] Detailed methods on LC-MS/MS (liquid chromatography-tandem MS) quantitation of PUMAi are found in Supplementary Materials and Methods.

The subject of a further data set is WT mice. Briefly: Survival after total body irradiation. It counts as in vivo, mouse. The settings on record: 9.5 and 15 gray TBI; PUMAi 10 mg/kg 30 min before and after, then daily for 4 days. The protocol:
(FIG. 12A) and (FIG. 12B) Survival of WT mice treated with 3 daily doses of 180 mg/kg/day (A) and 250 mg/kg/day (B) CPT-11, respectively, on days 0, 1, and 2. PUMAi (10 mg/kg) was given 2 hours before each dose of CPT-11 and 20 hours after the final dose. (FIG. 12C) and (FIG. 12D) Survival of WT mice after total body irradiation (TBI) at 9.5 Gy (FIG. 12C) and 15 Gy (FIG. 12D). PUMAi (10 mg/kg) was given 30 min before and 30 min after TBI, and then daily for 4 days. Survivors at 9.5 Gy TBI in C were sacrificed on day 40 with no obvious health problems. P values were calculated by log-rank test.

Data set [2] concerns colon cancer cell line DLD1. Briefly: PUMA-induced apoptosis inhibition in DLD1.
Protocol: PUMAi was added to cells at 25 uM at the same time as CPT.
A minimum of 300 cells per treatment were analyzed in triplicate.

Protocol for LGR5+ stem cells: WT and Puma KO mice carrying the Lgr5-EGFP-IRES-creERT2 marking allele were treated with CPT-11 and PUMAi over 2 weeks as in FIGS. 5A-5G and analyzed for intestinal phenotypes. (FIG. 6A) GFP (LGR5) immunofluorescence in intestinal crypts. Arrows indicate LGR5^+ (GFP) crypts. Scale bar, 100 um. (FIG. 6B) Quantitation of intestinal crypts containing at least one GFP^+ (LGR5^+) cell. (FIG. 6C) Top: Olfm4 RNA ISH in intestinal crypts. Scale bar, 50 um. Asterisks indicate Olfm4+ crypt cells. Bottom: Percentage of crypts containing at least one Olfm4+ cell. (FIG. 6D) MMP7 immunofluorescence in intestinal crypts. Scale bar, 100 um. (FIG. 6E) Quantitation of MMP7+ crypt cells at the crypt base (CBC region). (FIG. 6F) Top: GFP (LGR5) and MMP7 immunofluorescence in intestinal crypts. Scale bar, 20 um. Asterisks indicate LGR5^+/MMP7^+ cell pairs. Bottom: Quantitation of LGR5^+/MMP7^+ cell pairs per crypt. In (FIG. 6A), (FIG. 6D), and (FIG. 6F), DAPI was used to stain nuclei. In (FIG. 6B), (FIG. 6C), (FIG. 6E), and (FIG. 6F), values are means+SEM; n=3 mice. *P<0.05, **P<0.01, and ***P<0.001 (one-way ANOVA with Tukey post hoc test).
LGR5 (GFP) IF. Sections were deparaffinized and rehydrated through graded ethanols. Antigen retrieval was performed by boiling for 10 minutes in 0.1 M citrate buffer (pH 6.0) with 1 mM EDTA. Non-specific antibody binding was blocked using 20% goat serum (Invitrogen) at room temperature for 30 min. […] Sections were then washed in PBS and mounted with VectaShield+DAPI (Vector Labs).
MMP7 IF. Sections were prepared as described above. Non-specific antibody binding was blocked using 20% chicken serum (Invitrogen) at room temperature for 30 min. Sections were washed in PBS and incubated overnight at 4 °C in a humidified chamber with 1:100 diluted goat anti-MMP7 (AF2967; R&D Systems). […] Sections were then washed in PBS and mounted with VectaShield+DAPI (Vector Labs) for visualization.
LGR5(GFP)/1VIMP7 IF. Sections were prepared as described above. Non-specific antibody binding was blocked using 20% chicken serum (Invitrogen) at room temperature for 30 min. Sections were then stained for GFP as described above, followed by staining for MMP7 as described.
ISH for Olfm4 was carried out with the RNAscope 2.0 BROWN kit (Advanced Cell Diagnostics) according to the manufacturer's instructions. Briefly, tissue sections were baked for 60 min at 60 ÅåC, then deparaffinized in xylene, and rehydrated through graded ethanols. Sections then underwent three pretreatment steps, probe hybridization, six amplification steps, development, and counterstaining.

As to `OCCN1CCN(CC(O)COc2ccc3ccccc3c2)CC1` (stereo not shown) [PUMAi, 1-[4-(2-hydroxyethyl)-1-piperazinyl]-3-(2-naphthyloxy)-2-propanol dihydrochloride], the “drop in Olfm4+ crypts (RNA ISH)” value in the data set on LGR5+ stem cells (after six doses of CPT-11) stood at 49%. Moreover, in the data set on LGR5+ stem cells (repeated CPT-11 treatment), the “loss and mislocalization of MMP7+ cells and of MMP7+/LGR5+ contact” value is “suppressed”. The “PUMAi concentration in intestinal mucosa compared to -1.5 hours” value in data set [1] (+1 hour of CPT-11 administration) was found to be 67%; in data set [1] (+6 hours of CPT-11 administration), 30%. Further, the “PUMAi concentration in plasma over time” value in data set [1] (-1.5, +1, +6 hours, compared with intestinal mucosa) was “dropped more quickly in the plasma”. Moreover, the “survival after total body irradiation” value in the data set on WT mice is reported as “increased the survival”. The “Apoptosis inhibition of DLD1” value in data set [2] is listed as 39%.
